These results are taken from patent US8431715B2, “Thiazole compound (as PPARδ) ligand and pharmaceutical, cosmetic and health food comprised thereof” (Seoul National University Industry Foundation, priority 2007, dated 2013).

The experiment has as its system C57BL/6 mice. The experiment can be described thus: Muscle endurance test in adults with exercise, treadmill. The format is in vivo. The conditions noted are these: 10 mg/kg oral, mice at 10 weeks, treadmill exercise 30 days. As to the method: Particularly, the compound of formula 1 was orally administered to C57BL/6 mice at 10 weeks at the concentration of 10 mg/kg, during which the mice were forced to exercise. The exercise was performed with treadmill for […] once a day for 30 days, precisely at the speed of 2 meter/min for the first 5 minutes, at 5 meter/min for 5 minutes, at 8 meter/min for 5 minutes and at 20 meter/min for the last 5 minutes. At the finish, muscle endurance and muscle function enhancing effect was tested by using treadmill. As a result, the time (1.5 fold) and distance (1.6 fold) of exercise were all increased in the group treated with the compound of the present invention, when compared with the control.

As for `Cc1cc(S[C@H](Cc2ccccc2)c2sc(-c3ccc(C(F)(F)F)cc3)nc2C)ccc1OCC(=O)O` (racemic) [formula 1], the “distance of exercise compared with the control” value turned out to be 1.6 fold and the “time of exercise compared with the control” value amounted to 1.5 fold.
